In US20040010001A1, “Methods and compositions for modulating cell proliferation and cell death” (priority 1999, published 2004):
Like-named read-outs stand apart in the source and are kept apart here.

Key:
[1] = test system: rat lymph node metastases, histocultures; test: Drug effect in histocultures of rat lymph node metastases (inhibition of 3H-thymidine incorporation); format: cell-based; details: 24 h, read-out: Concentration producing 50% inhibition (data shown are the concentrations that produced 30% inhibition)
[2] = test system: Human prostate PC3 tumor cells; test: aFGF/bFGF-induced resistance and reversal by suramin, sulforhodamine B assay; format: cell-based
Protocol: The experimental conditions are described briefly below. […] Cell number was measured using the sulforhodamine B assay which measures the total protein concentration. […] The FGF-induced resistance was dependent on the FGF concentrations, with a higher resistance at higher FGF concentrations.

[3] = test system: Human prostate PC3 tumor cells; test: Drug treatment and extracellular bFGF (ELISA), LDH release, cell number; format: cell-based; details: for Extracellular bFGF, % of control / Extracellular concentration bFGF / Extracellular LDH, % of control: 72 hours
[4] = test system: normal rat intestinal epithelial cells (IEC6); test: Protection of normal intestinal epithelial cells by aFGF/bFGF, BrdU incorporation; format: cell-based; details: drug 24 hours
Protocol: These cells were derived from normal, noncancerous intestinal epithelium. […] Drug effect was measured as the reduction of bromodeoxyuridine incorporation in treated cells relative to untreated controls.

[5] = test system: rat lung metastases, histocultures; test: Drug effect in histocultures of rat lung metastases (inhibition of 3H-thymidine incorporation); format: cell-based; details: 24 h, read-out: Concentration producing 50% inhibition (data shown are the concentrations that produced 30% inhibition)
[6] = test system: rat MAT-LyLu tumor cells; test: Reversal of CM-induced resistance by FGF antibodies and suramin, BrdU incorporation; format: cell-based; details: Rattus norvegicus, read-out: IC50 in the presence of 1.6 micromolar suramin; CM of lung metastases histocultures; unchanged in the absence or presence of 5 microgram/ml anti-bFGF antibody
Protocol: The source of CM was lung histocultures for the aFGF experiment, and early monolayer lung cultures for the bFGF experiment. The study used four controls: no CM (left solid curves, open circles); addition of 5 μg/ml aFGF or bFGF antibody but no CM (inverted filled triangle, overlaps with the left control curve); addition of CM but no antibody (right solid curves, open square); addition of CM plus a nonspecific antibody, IgG (5 μg/ml, filled diamond, overlaps with the right CM-control curve). Dotted curves, from right to left, addition of aFGF or bFGF antibody concentrations of 0.05 μg/ml (filled circle); 0.1 μg/ml (filled square); 1 or 0.5 μg/ml (filled triangle); and 5 μg/ml (open inverted triangle). […] Similar results were also found for human PC3 prostate tumor cells.
The first study used specific inhibitors of extracellular aFGF and bFGF, i.e., monoclonal antibodies (FIG. 2A). […] In the presence of the active CM, the bFGF antibody produced a concentration-dependent reversal of the CM-induced chemoresistance, with complete reversal by 5 microgram/ml antibody, whereas a nonspecific antibody (i.e., non-immune rabbit IgG) had no effect. For aFGF, the antibody treatment partially reversed the CM-induced resistance; the maximum reversal was about 60% that was obtained with 1 microgram/ml antibody with no significant additional reversal at a 5-fold higher concentration. The second study evaluated the effect of removing aFGF and/or bFGF from the active CM by immunoprecipitation. Removal of bFGF abolished the resistance, whereas removal of aFGF only partially reversed the CM effect. These two studies indicate that both aFGF and bFGF were involved in the resistance, but had different roles.
This study was performed using the rat MAT-LyLu tumor cells as the model tumor cells and using doxorubicin and paclitaxel as the model anticancer agents. The CM used to induce resistance was collected from histocultures of lung metastases (see Table 1). Five microgram/ml anti-bFGF antibody was added.

[7] = test system: human prostate PC3-LN tumor cells; test: cells; format: cell-based; details: read-out: IC50 in the monolayer cultures of PC3-LN cells
[8] = test system: human PC3-LN lung metastases
Protocol: Animal care was in accordance with the guidelines at the Ohio State University. Several human tumor models were used, including (a) lung metastases derived from intravenous injection of human PC3-LN tumor cells, (b) lung tumors derived from direct injection of human PC3 cells in lungs, and (c) subcutaneously implanted PC3 tumors. Four studies were performed. In all studies, drug treatment was administered intravenously via a tail vein, after the tumor was established. The first and second studies used the intravenous PC3-LN lung metastasis model. Briefly, human PC3-LN cells ([…] in 0.1 ml physiologic saline) were injected intravenously, via a tail vein, into immunodeficient mice. […] Treatment was given twice weekly for three weeks. […] Three days after completion of drug treatments, animals were euthanized and their lungs removed, fixed in Bouin's solution to visualize tumor nodules, and then processed for histologic evaluation. […] The lung surface area (counted as number of pixel) occupied by the tumor was calculated as a fraction of the total lung area, using Adobe PhotoShop. The number of tumor cells in residual tumors and the fraction of apoptotic cells in each tumor were also determined microscopically. Because apoptotic cells disappear over time, a second measure of the extent of apoptosis was the density of non-apoptotic cells in the residual tumors. This was determined by counting the number of non-apoptotic tumor cells in randomly selected microscopic fields at 400× magnification. […] In the case of combination therapy where fewer than 5 tumor nodules remained per animal, all residual cells (between 20 to 600 cells per animal) were counted.

[9] = no suramin, relative to control
[10] = paclitaxel study: suramin 10 mg/kg, paclitaxel 15 mg/kg, intravenous twice weekly for three weeks

## CC(=O)O[C@H]1C(=O)[C@@]2(C)[C@H]([C@H](OC(=O)c3ccccc3)[C@]3(O)C[C@H](OC(=O)[C@H](O)[C@@H](NC(=O)c4ccccc4)c4ccccc4)C(C)=C1C3(C)C)[C@]1(OC(C)=O)CO[C@@H]1C[C@@H]2O [Paclitaxel]
[1]
  IC30 (concentration producing 30% inhibition): > 227 nM
[2]; Homo sapiens, read-out: IC50, Control (drug treatment only, without FGF treatment), No suramin, drug 96 hours
  IC50: 2.16 nM
[2]; Homo sapiens, read-out: IC50, aFGF 0.3 ng/ml + bFGF 1 ng/ml, No suramin, FGF pretreatment 96 hours, drug 96 hours
  IC50: 6.53 nM
[2]; Homo sapiens, read-out: IC50, aFGF 1 ng/ml + bFGF 3 ng/ml, No suramin, FGF pretreatment 96 hours, drug 96 hours
  IC50: 12.1 nM
[2]; [9]
  Resistance, Folds, aFGF 0.3 ng/ml + bFGF 1 ng/ml: 3.02 Folds
  Resistance, Folds, aFGF 1 ng/ml + bFGF 3 ng/ml: 5.59 Folds
[2]; read-out: IC50, Control (without FGF treatment), Suramin, 15 μM, drug 96 hours with 15 μM suramin
  IC50: 2.13 nM
[2]; read-out: IC50, aFGF 0.3 ng/ml + bFGF 1 ng/ml, With suramin, FGF pretreatment 96 hours, drug 96 hours with 15 micromolar suramin
  IC50: 1.88 nM
[2]; read-out: IC50, aFGF 1 ng/ml + bFGF 3 ng/ml, With suramin, FGF pretreatment 96 hours, drug 96 hours with 15 micromolar suramin
  IC50: 2.01 nM
[3]; drug concentration 2.5 NM
  Remaining cell number at 72 hours (% of control): 87%
  Remaining cell number at 72 hours × 10^6: 2.0 × 10^6
  Extracellular bFGF, % of control: 347 % of control
  Extracellular concentration bFGF: 19.5 pg/mL
[3]; drug concentration 5 NM
  Remaining cell number at 72 hours (% of control): 43%
  Remaining cell number at 72 hours × 10^6: 1.0 × 10^6
  Extracellular LDH, % of control: 437 % of control
  Extracellular bFGF, % of control: 1358 % of control
  Extracellular concentration bFGF: 76.3 pg/mL
[3]; drug concentration 10 NM
  Remaining cell number at 72 hours (% of control): 22%
  Remaining cell number at 72 hours × 10^6: 0.5 × 10^6
  Extracellular LDH, % of control: 705 % of control
  Extracellular bFGF, % of control: 2917 % of control
  Extracellular concentration bFGF: 164 pg/mL
[4]; IEC-6, absence of aFGF and bFGF
  IC50: 491 nM
[4]; IEC-6, pretreated with 1 ng/ml aFGF and 3 ng/ml bFGF for 96 hours
  IC50: 1450 nM
[5]
  IC30: > 1800 nM
[6]
  IC50: 14 nM
[7]
  IC50: 8 nM
[8]; paclitaxel 15 mg/kg alone
  increase of the fraction of apoptotic cells: 13 fold
  reduction of the density of nonapoptotic cells: ~70%
[8]; [10]
  % Apoptotic cells per tumor: 53 ± 24 %
  Density of nonapoptotic cells in residual tumors, cells/field: 49 ± 35 cells/field
